One data set relates to Foxp3^+Treg cells. Kind of data set: Detection of Foxp3+Treg cells in a tumor tissue by FCM (NR-FMT LLC-bearing mice). It counts as in vivo, C57BL/6J mice. As to conditions: flow cytometry of tumor tissue. (In general: Flow cytometry measures light scatter and fluorescence of single cells or particles in a stream.)
Data set [1] is described as follows: Adverse reactions in treated tumor-bearing mice. It counts as in vivo. As to conditions: tumor-bearing mice irresponsive to ICIs. As for the experimental part: (§1) During administration, a body weight of mice was monitored every 3 days, and a tumor volume was measured.
For data set [2], the system named is Lewis lung carcinoma (LLC). Kind of data set: Therapeutic effect in PD-1 mAb-irresponsive (NR-FMT) LLC-bearing mice: tumor volume and weight. It counts as in vivo, C57BL/6J mice. As to conditions: compared with NR-Control group, HQG intragastric daily, PD-1 mAb i.p. once every 3 days. As for the experimental part:
Pseudo-germ-free mouse modeling: Mice were treated with broad-spectrum antibiotics to construct pseudo-germ-free mouse models. 36 female C57BL/6J mice at 5 weeks (experimental animal license No.: SCXK (Beijing) 2019-0009) were purchased from Beijing Vital River Laboratory Animal Technology Co., Ltd. The mice were raised under the following conditions: cleanliness: SPF level; room temperature: 20° C. to 22° C.; humidity: 60±5%; 12 h light/12 h dark alternating cycle; and free eating and drinking. All animal protocols in this experiment were approved by the Beijing MaideiKangna Animal Ethics Committee, and animal experimental operations were conducted under the guidance of the Laboratory Animal Protection Association.
After the mice were raised adaptively for one week, the mice were intragastrically administered daily with 100 μL of ABT for consecutive 3 days. […]
Subcutaneous inoculation of LLC cells: An LLC cell suspension with a concentration of about 1×10^7 cells/mL was inoculated at a right axilla of a fecal bacteria-transplanted mouse with an inoculum size of 0.2 mL/mouse. The longest and shortest diameters of a tumor were measured by a vernier caliper, and a volume of the tumor=½ longest diameter×shortest diameter^2. […]
as §1

Entries after “also recorded” stand apart in the source; their conditions may differ.

As to `O=C(O)[C@H]1O[C@@H](Oc2cc3oc(-c4ccccc4)cc(=O)c3c(O)c2O)[C@H](O)[C@@H](O)[C@@H]1O` [HQG, baicalin], the “number of Foxp3+Treg cells in a tumor” value with Foxp3^+Treg cells was “not reduced”. For the same compound, the adverse reactions entry in data set [1] is reported as “no significant adverse reactions”. For the same compound, in data set [2], the tumor volume result is listed as “no significant difference; also recorded: not reduced” and the tumor weight entry is reported as “no significant difference; also recorded: not reduced”.

The values above are taken from patent US12029747B2, “Use of baicalin in preparation of drug for treating tumor irresponsive to immune checkpoint inhibitors (ICIs)/undergoing hyperprogression” (BEIJING FRIENDSHIP HOSPITAL, CAPITAL MEDICAL UNIVERSITY, priority 2022, dated 2024).
